{"source": "patent US10736906B2", "about": "“Method to enhance tissue regeneration” (CHILDREN'S MEDICAL CENTER CORPORATION, priority 2006, dated 2020)", "key": {"[1]": {"test_system": "cKit+Sca1+ Lineage- (KSL) bone marrow cells", "assay": "murine transplantation assay with purified HSCs, CFU-S12", "type": "in vivo, mice", "settings": "concurrent administration with BIO; indomethacin 1 mg/kg and 2.5 mg/kg", "procedure": "To assess whether prostaglandin levels regulate wnt activity in HSCs, murine transplantation assays were performed utilizing purified HSCs. FACS-isolated cKit+Sca1+ Lineage—(KSL) bone marrow cells were transplanted into lethally irradiated recipients."}, "[2]": {"test_system": "stem and progenitor cell population", "assay": "hematopoietic recovery following irradiation in the adult zebrafish (kidney marrow)", "type": "in vivo", "settings": "ten days post irradiation; wnt8 induction 24-36 hours post irradiation", "procedure": "(§1) It has been hypothesized that wnt activation regulates HSC self-renewal and repopulation. Wnt activation is also thought to be involved in carcinogenesis, however, making the concept of direct enhancement of wnt signaling problematic. Whether regulation of wnt activity by prostaglandin can effectively modulate HSC homeostasis in the adult, was determined by observing hematopoietic recovery following irradiation in the zebrafish. […] APCMin/+ mice have elevated β-catenin levels due to loss of APC function in the destruction complex."}, "[3]": {"test_system": "bone marrow", "assay": "bone marrow recovery following 5-FU chemical injury in APCMin/+ mice", "type": "in vivo", "settings": "1 mg/kg every 48 hrs, after 5-FU", "procedure": "as §1"}, "[4]": {"test_system": "adult zebrafish liver", "assay": "liver regeneration and wound healing after 1/3 partial hepatectomy in adult zebrafish", "type": "in vivo", "excerpt": "Following ⅓ partial hepatectomy, the zebrafish liver regenerates within five days to seven days.\nAs many molecular pathways controlling embryonic development mediate tissue homeostasis in the adult, the effects of prostaglandin signaling during liver regeneration were examined. […] Fish were revived and allowed to heal in fish water.\nTo test the requirement of functional prostaglandin signaling during regeneration, fish were exposed to the dual-specific cox inhibitor, indomethacin, from hour 6 to hour 18 following partial hepatectomy.\nLiver Resection: Folling administration of tricaine anesthetic, ⅓ partial hepaectomy of the adult zebrafish liver was performed under brightfield imaging on a dissection microscope. An incision was made using microdissection scissors posterior to the heart on the left lateral portion of the abdomen."}, "[5]": {"test_system": "β-catenin", "assay": "partial hepatectomy in wild-type and APCMin/+ mice (IHC, western blot, BrdU)", "type": "in vivo", "excerpt": "Here, APC mutation caused increased total and nuclear β-catenin levels, particularly in the periportal region. […] These findings were confirmed by western blot. β-catenin may cause increased cell proliferation through its target cyclin D1.\nAdditionally, the present invention provides the first example that the activation of wnt/β-catenin signaling can enhance the rate of liver regeneration. […] Furthermore, the regeneratice advantage is evolutionarily conserved following hepatectomy in APCMin/+ mice. (Murine liver resections were performed as described in Green & Puder, 16 J. Investigational Surgery 99-102 (2003). Thus, the present invention provides for the manipulation of the wnt/β-catenin pathway as a way to enhance liver regeneration in patients, either after liver resection or during recovery from acute liver failure induced by toxins such as acetaminophen."}, "[6]": {"test_system": "hematopoietic stem cells (HSCs)", "assay": "HSC formation in zebrafish embryos (runx1, c-myb expression), with heat-shock inducible wnt modulators", "type": "in vivo", "procedure": "The functional consequences of the PGE2/wnt interaction in HSC formation during embryonic development were analyzed by examining the expression of the HSC markers runx1 and c-myb. Heat shock induction of a canonical wnt ligand, wnt8, at ten somites led to enhanced HSC formation at 36 hours post fertilization (hpf; 47/54). When wnt8 induction was followed by exposure to indomethacin (10 μM, 16-36 hpf) HSC formation was reduced to or below wild-type levels ( 43/46).\nInducible negative regulators of wnt activity were used in combination with dmPGE2 treatment to functionally localize the interaction between the PG and wnt pathways. Dkk1 antagonizes the wnt pathway at the level of membrane binding and the initiation of the wnt signaling cascade. Dkk induction in hs:dkk1 transgenic embryos inhibited HSC development ( 34/49). Exposure to exogenous dmPGE2 rescued the dkk1-mediated effect on HSC formation ( 28/51, 10 μM, 16-36 hpf). Axin is a central component of the β-catenin destruction complex and thus a negative regulator of the wnt signaling cascade in the cytosolic compartment. […] Similarly, a dominant-negative form of the β-catenin transcriptional co-activator TCF abolished HSC formation ( 60/62), and no rescue was affected via dmPGE2 exposure.\nThe wnt pathway can actively enhance HSC proliferation through signaling from the HSC niche as well as within HSCs themselves. PGE2 regulates HSC formation at the level of the vascular niche as well as within the HSCs. North et al., 2007. In order to identify transcriptional programs regulated by the wnt signaling pathway, genes involved in HSC development were analyzed by qPCR.\nThe functional interaction of signaling processes in the zebrafish, down stream from PG, was explored by increasing camp production using forskolin and inhibiting PKA with H89. […] Furthermore, the rescue of dkk effects by dmPGE2 was eliminated by H89.\nHeat shock activation/repression of wnt signaling: Embryonic heat-shock experiments were conducted at 38° C. for a duration of 20 minutes unless otherwise noted. Genotype was determined by the presence of GFP fluorescence at three hours post heat-induction, non-fluorescence (wild-type) siblings were used as controls.\nIn situ hybridization: Paraformaldehyde (PFA)-fixed embryos were processed for in situ hybridization using standard zebrafish protocols such as those found on the internet at, for example, ZFIN: The Zebrafish Model Organism Database (hosted by the Univ. Oregon, Eugene, Oreg.). The following RNA probes were used to detect alterations in endodermal and liver development: GFP, LFABP, sterol carrier protein, transferrin, foxA3, insulin, trypsin, and IFABP. Changes in expression compared to wild-type controls are reported as the # altered/# scored per genotype; a minimum of three independent experiments were conducted per analysis."}, "[7]": {"test_system": "liver tumor", "assay": "zebrafish DMBA liver tumor model, ultrasound biomicroscopy", "type": "in vivo", "excerpt": "Although zebrafish are a valuable vertebrate model to study carcinogenesis, noninvasive imaging remains challenging because adult fish are not transparent. Tumors can be readily detected in vivo, however, using high-resolution microscopic ultrasound. This technique facilitates tissue perfusion calculations, cellular aspirates, tumor progression analysis, and responses to treatment. Ultrasound biomicroscopy allows longitudinal studies of tumor development and real-time assessment of therapeutic effects in the zebrafish model. The visualization techniques employed herein are described by Goessling et al., 4(7) Nature Methods 551-53 (2007). […] Tumor occurrence was monitored over about five months. Tumors were identified by ultrasound biomicroscopy. The cancerous fish were then treated with indomethacin for twelve hours over night, every three days for one month, and the tumors visualized as described. Goessling et al., 2007. […] After one month of drug treatment, the fish appeared healthy, but were sacrificed to confirm the presence of cancer by histology. […] In another experiment, detailed in FIG. 10B and FIG. 10C, fish were treated every week for tumor prevention. Here, treatment with the carcinogen led to liver tumors in wild-type fish, and to twice as many tumors in APC+/− mutant fish."}}, "note": "Entries after “also recorded” stand apart in the source; their conditions may differ."}
{"compound": "COc1ccc2c(c1)c(CC(=O)O)c(C)n2C(=O)c1ccc(Cl)cc1", "note": "[indomethacin]", "values": [{"measurement": "effect on BIO-enhanced CFU-S number", "setting": "[1]", "value": "blocks this effect; also recorded: diminished CFU-S number back to baseline levels"}, {"measurement": "effect on wnt8-induced 2.5-fold increase in stem and progenitor cell population", "setting": "[2]", "value": "significantly diminished"}, {"measurement": "effect on the proliferative advantage (bone marrow recovery) in APCMin/+ mice", "setting": "[3]", "value": "markedly diminished the proliferative advantage"}, {"measurement": "liver architecture", "setting": "[4]; at resection margin and throughout un-injured portions", "value": "altered architecture of the liver"}, {"measurement": "liver regrowth compared to controls", "setting": "[4]; exposure following resection (indomethacin hour 6 to 18; day 1 and day 3)", "value": "significantly reduced liver re-growth"}, {"measurement": "complete regeneration of the liver", "setting": "[4]; indomethacin: by day 5 post-resection", "value": "failed to regenerate fully"}, {"measurement": "wound healing at the incision site", "setting": "[4]; skin wounds following partial hepatectomy", "value": "severely inhibited; also recorded: prohibited wound healing"}, {"measurement": "regenerative index", "setting": "[4]; treatment 6 to 18 hours post resection, wild-type and APC mutant fish", "value": "significantly diminished"}, {"measurement": "β-catenin, immunohistochemistry post resection", "setting": "[4]; wild-type and APC+/− fish", "value": "decrease in overall β-catenin levels"}, {"measurement": "β-catenin levels", "setting": "[5]; 2.5 mg/kg bid sq, both genotypes", "value": "decreased β-catenin levels significantly"}, {"measurement": "Cyclin D1 levels and cell proliferation (BrdU incorporation)", "setting": "[5]; APCMin/+ mice", "value": "markedly diminished"}, {"measurement": "P-GSK3b (serine 9), IHC", "setting": "[5]; wild-type and APC+/− mice, confirmed by western blot", "value": "decreased amounts"}, {"measurement": "effects of wnt8/dkk1 induction on runx1, cmyb, flk1, ephB2 expression (qPCR)", "setting": "[6]; indomethacin added to wnt8, dmPGE2 added to dkk1", "value": "could be modified"}, {"measurement": "HSC formation reduced to or below wild-type levels after wnt8 induction (# altered/# scored)", "setting": "[6]; wnt8 heat shock at ten somites, then 10 μM, 16-36 hpf", "value": "43/46"}, {"measurement": "solid portion of the tumor, ultrasound", "setting": "[7]; after six treatments", "value": "decreased in size"}, {"measurement": "tumor size, ultrasound", "setting": "[7]; after ten treatments", "value": "shrunk substantially"}, {"measurement": "tumor size, ultrasound", "setting": "[7]; after three treatments (12 h overnight every three days)", "value": "tumor size increased"}, {"measurement": "liver tumor formation (prevention)", "setting": "[7]; weekly treatment, wild-type and especially APC+/− fish", "value": "decreased tumor formation"}]}
